Laboratory results published in patent publication US20080241080A1, “COMPOSITION FOR TREATING XEROSTOMIA OR DRY MOUTH” (BIOCOSMETICS, S.L., priority 2007, published 2008).

Test: Dentin loss under extreme erosion conditions, composition versus its three ingredients separately (Example 8)
Parameters: species or system cow
Conditions: 10 cycles: 5 min pre-treatment, 1% citric acid pH 2.3 for 3 min; vs distilled water
Method: The protective capacity of a mouthwash formulated with olive oil, trimethylglycine and xylitol in dentin subjected to extreme erosion conditions was analysed, compared to that of aqueous solutions of the three ingredients separately in the same concentrations used in the mouthwash tested. For the evaluation of effects a control was included consisting of distilled water.
Incisive teeth extracted from a cow's jaw were used, which were immersed in a 0.5% thymol solution at room temperature. The teeth were sectioned at the cementum-enamel junction by means of a water-cooled diamond scalpel (Exakt, Norderstedt, Germany), and the crowns and roots were embedded in acrylic resin cylinders (Paladur, Heraeus Kulzer, Wehrheim, Germany). Radicular cementum was completely eliminated. […]
Dentin loss was quantified performing profile or profilometric measurements (Mahr Perthometer, Göttingen, Germany). […] After the experiment the adhesive tapes were removed and the samples were analysed again. The average depth of the eroded surfaces was thus calculated with respect to basic surface profiles by means of specific software (Mahr Perthometer Concept 7.0, Mahr, Göttingen, Germany).
Dentin loss was calculated (mean±standard deviation) for each group and statistically analysed by Student's t test followed by Bonferroni's t test for multiple comparisons (Statistica 6.0, Statsoft, Tulsa, USA).

Compound	protective effect on dentin against erosion
OC[C@@H](O)[C@H](O)[C@@H](O)CO [1% xylitol solution, xylitol]	did not demonstrate any protective effect
C[N+](C)(C)CC(=O)[O-] [2% trimethylglycine solution, trimethylglycine]	did not demonstrate any protective effect
